Biological target: T1, human mGlu4 receptor (Homo sapiens, UniProt Q14833)
T1 construct: expressed in transfected cells; host or cells: monoclonal HEK-293 cell line, stably transfected
Test: Ca2+ mobilization in vitro assay on recombinant human mGlu4 expressed in HEK293 cells (PAM, L-AP4 at EC20)
Type: cell-based
Conditions: for Emax: HEK293, maximal response in % of the maximal stimulatory effect obtained with saturating concentrations of L-AP4, read-out: Eff. (%); for EC50: HEK293 cells expressing human mGlu4, L-AP4 added at EC20
Description: FIG. 1: Illustration of the experimental outline for mGlu4 PAM Ca2+ mobilization screening assay and the determination of EC50 and % Emax values.
Determination of EC50 Values Using a Ca2+ Mobilization In Vitro Assay on Recombinant Human mGlu4 Expressed in HEK293 Cells:
A monoclonal HEK-293 cell line stably transfected with a cDNA encoding for the human mGlu4 receptor was generated; for the work with mGlu4 Positive Allosteric Modulators (PAMs), a cell line with low receptor expression levels and low constitutive receptor activity was selected to allow the differentiation of agonistic versus PAM activity. Cells were cultured according to standard protocols (Freshney, 2000) in Dulbecco's Modified Eagle Medium with high glucose supplemented with 1 mM glutamine, 10% (vol/vol) heat-inactivated bovine calf serum, Penicillin/Streptomycin, 50 μg/ml hygromycin and 15 μg/ml blasticidin (all cell culture reagents and antibiotics from Invitrogen, Basel, Switzerland).
About 24 hrs before an experiment, 5×10^4 cells/well were seeded in poly-D-lysine coated, black/clear-bottomed 96-well plates. The cells were loaded with 2.5 μM Fluo-4AM in loading buffer (1×HBSS, 20 mM HEPES) for 1 hr at 37° C. and washed five times with loading buffer. The cells were transferred into a Functional Drug Screening System 7000 (Hamamatsu, Paris, France), and 11 half logarithmic serial dilutions of test compound at 37° C. were added and the cells were incubated for 10-30 min. with on-line recording of fluorescence. Following this pre-incubation step, the agonist (2S)-2-amino-4-phosphonobutanoic acid (L-AP4) was added to the cells at a concentration corresponding to EC20 with on-line recording of fluorescence; in order to account for day-to-day variations in the responsiveness of cells, the EC20 of L-AP4 was determined immediately ahead of each experiment by recording of a full dose-response curve of L-AP4. Responses were measured as peak increase in fluorescence minus basal (i.e. fluorescence without addition of L-AP4), normalized to the maximal stimulatory effect obtained with saturating concentrations of L-AP4. Graphs were plotted with the % maximal stimulatory using XLfit, a curve fitting program that iteratively plots the data using Levenburg Marquardt algorithm. The single site competition analysis equation used was y=A+((B−A)/(1+((x/C)D))), where y is the % maximal stimulatory effect, A is the minimum y, B is the maximum y, C is the EC50, x is the log 10 of the concentration of the competing compound and D is the slope of the curve (the Hill Coefficient). From these curves the EC50 (drug concentration at which 50% of the maximal receptor activation was achieved), the Hill coefficient as well as the maximal response in % of the maximal stimulatory effect obtained with saturating concentrations of L-AP4 were calculated (see FIG. 1). […] A depression of the signal observed after addition of the EC20 concentration of L-AP4 was indicative of an inhibitory activity of the test compound.

T1 sequence (Q14833 33-912): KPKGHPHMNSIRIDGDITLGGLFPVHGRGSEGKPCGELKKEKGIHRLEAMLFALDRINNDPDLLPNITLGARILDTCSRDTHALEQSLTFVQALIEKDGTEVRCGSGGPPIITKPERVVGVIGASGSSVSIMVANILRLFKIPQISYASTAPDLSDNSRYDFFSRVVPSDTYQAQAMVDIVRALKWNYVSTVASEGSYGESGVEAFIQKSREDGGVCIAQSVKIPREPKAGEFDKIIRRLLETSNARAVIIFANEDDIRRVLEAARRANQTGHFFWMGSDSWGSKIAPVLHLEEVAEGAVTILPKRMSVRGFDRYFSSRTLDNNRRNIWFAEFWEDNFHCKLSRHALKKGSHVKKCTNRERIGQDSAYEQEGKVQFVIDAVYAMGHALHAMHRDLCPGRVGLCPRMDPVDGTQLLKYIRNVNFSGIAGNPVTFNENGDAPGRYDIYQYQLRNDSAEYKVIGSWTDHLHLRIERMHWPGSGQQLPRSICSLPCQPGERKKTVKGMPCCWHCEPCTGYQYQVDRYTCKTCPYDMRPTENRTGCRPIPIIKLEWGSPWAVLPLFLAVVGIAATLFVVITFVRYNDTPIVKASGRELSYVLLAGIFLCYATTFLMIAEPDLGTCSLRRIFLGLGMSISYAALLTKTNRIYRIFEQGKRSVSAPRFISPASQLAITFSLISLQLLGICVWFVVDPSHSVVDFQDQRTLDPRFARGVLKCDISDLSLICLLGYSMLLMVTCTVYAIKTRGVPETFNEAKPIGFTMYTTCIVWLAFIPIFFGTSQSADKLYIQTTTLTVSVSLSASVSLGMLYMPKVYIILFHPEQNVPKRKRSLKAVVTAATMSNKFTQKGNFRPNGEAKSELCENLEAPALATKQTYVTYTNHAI

Structure (SMILES)	Emax	EC50
CN1C(=O)N(c2c(F)cc(C#Cc3cccc(F)c3F)cc2F)C(=O)C[C@@]1(C)c1cnn(C)c1 [Example 57, (6S)-3-[4-[2-(2,3-Difluorophenyl)ethynyl]-2,6-difluoro-phenyl]-1,6-dimethyl-6-(1-methylpyrazol-4-yl)hexahydropyrimidine-2,4-dione]	143%	97 nM
CN1C(=O)N(c2c(F)cc(C#Cc3ccccc3)cc2F)C(=O)C[C@@]1(C)c1cncs1 [Example 42, (6S)-3-[2,6-Difluoro-4-(2-phenylethynyl)phenyl]-1,6-dimethyl-6-thiazol-5-yl-hexahydropyrimidine-2,4-dione]	135%	86 nM
Cn1cc([C@]2(C)CC(=O)N(c3c(F)cc(C#Cc4ccccc4)cc3F)C(=O)N2)cn1 [Example 5, (6S)-3-[2,6-Difluoro-4-(2-phenylethynyl)phenyl]-6-methyl-6-(1-methylpyrazol-4-yl)hexahydropyrimidine-2,4-dione]	103%	110 nM
CN1C(=O)N(c2c(F)cc(C#Cc3ccccc3)cc2F)C(=O)C[C@@]1(C)c1nn(C)c2ncccc12 [Example 17, (6S)-3-[2,6-Difluoro-4-(2-phenylethynyl)phenyl]-1,6-dimethyl-6-(1-methylpyrazolo[3,4-b]pyridin-3-yl)hexahydropyrimidine-2,4-dione]	154%	126 nM
CN1C(=O)N(c2c(F)cc(C#Cc3ccccc3)cc2F)C(=O)C[C@@]1(C)c1ccon1 [Example 40, (6S)-3-[2,6-Difluoro-4-(2-phenylethynyl)phenyl]-6-isoxazol-3-yl-1,6-dimethyl-hexahydropyrimidine-2,4-dione]	142%	37 nM
CN1C(=O)N(c2c(F)cc(C#Cc3ccccc3)cc2F)C(=O)C[C@@]1(C)c1cnn2ccccc12 [Example 14, (6S)-3-[2,6-Difluoro-4-(2-phenylethynyl)phenyl]-1,6-dimethyl-6-pyrazolo[1,5-a]pyridin-3-yl-hexahydropyrimidine-2,4-dione]	137%	93 nM

Further compounds by falling EC50, results first:

Emax	EC50	Structure (SMILES)
119%	113 nM	CN1C(=O)N(c2c(F)cc(C#Cc3ccccc3)cc2F)C(=O)C[C@@]1(C)c1nccs1 [Example 1, (6S)-3-[2,6-Difluoro-4-(2-phenylethynyl)phenyl]-1,6-dimethyl-6-thiazol-2-yl-hexahydropyrimidine-2,4-dione]
147%	108 nM	CN1C(=O)N(c2c(F)cc(C#Cc3ccccc3)cc2F)C(=O)C[C@@]1(C)c1cnn(CCO)c1 [Example 23, (6S)-3-[2,6-Difluoro-4-(2-phenylethynyl)phenyl]-6-[1-(2-hydroxyethyl)pyrazol-4-yl]-1,6-dimethyl-hexahydropyrimidine-2,4-dione]
143%	83 nM	CC[C@@]1(c2ccn(C)n2)CC(=O)N(c2c(F)cc(C#Cc3ccccc3)cc2F)C(=O)N1C [Example 27, (6S)-3-[2,6-Difluoro-4-(2-phenylethynyl)phenyl]-6-ethyl-1-methyl-6-(1-methylpyrazol-3-yl)hexahydropyrimidine-2,4-dione]
143%	59 nM	COCCn1ccc([C@]2(C)CC(=O)N(c3c(F)cc(C#Cc4ccccc4)cc3F)C(=O)N2C)n1 [Example 30, (6S)-3-[2,6-Difluoro-4-(2-phenylethynyl)phenyl]-6-[1-(2-methoxyethyl)pyrazol-3-yl]-1,6-dimethyl-hexahydropyrimidine-2,4-dione]
196%	59 nM	CN1C(=O)N(c2c(F)cc(C#Cc3ccccc3)cc2F)C(=O)C[C@@]1(C)c1cnn(C)n1 [Example 33, (6S)-3-[2,6-Difluoro-4-(2-phenylethynyl)phenyl]-1,6-dimethyl-6-(2-methyltriazol-4-yl)hexahydropyrimidine-2,4-dione]
160%	44 nM	CN1C(=O)N(c2c(F)cc(C#Cc3cccc(F)c3)cc2F)C(=O)C[C@@]1(C)c1cn[nH]c1 [Example 59, (6S)-3-[2,6-Difluoro-4-[2-(3-fluorophenyl)ethynyl]phenyl]-1,6-dimethyl-6-(1H-pyrazol-4-yl)hexahydropyrimidine-2,4-dione]
